Test results published in patent US7947718B2, “Isoxazole compounds as histamine H3 modulators” (Janssen Pharmaceutica NV, priority 2004, dated 2011).

The compounds below were run against T1, human histamine H3 receptor (Homo sapiens, UniProt Q9Y5N1) (assay: [3H]-N-Methylhistamine binding). Details: membranes of H3 receptor-expressing SK-N-MC cells; 0.8 nM [3H]-N-methylhistamine, 60 min at 25° C.
T1 construct: expressed in transfected cells; membranes were used
Procedure: Cells were grown to about 70% to 80% confluence and removed from the plate with trypsin and pelleted in a clinical centrifuge. […] One μg supercoiled H3 receptor cDNA was added to the cells and mixed gently. The voltage for the electroporation was set at 0.25 kV and the capacitance was set at 960 μF. After electroporation the cells were diluted with 10 mL of complete media and were plated onto four 10 cm dishes at the following ratios: 1:20, 1:10, 1:5, and 1:2. […] Colonies that survived selection were grown and tested. SK-N-MC cells were used because they give efficient coupling for inhibition of adenylate cyclase. The clones that gave the most robust inhibition of adenylate cyclase in response to histamine were used for further study.
Cell pellets from histamine H3 receptor-expressing SK-N-MC cells were homogenized in 50 mM TrisHCl/0.5 mM EDTA. Supernatants from an 800 g spin were collected and were recentrifuged at 30,000 g for 30 min. Pellets were re-homogenized in 50 mM Tris/5 mM EDTA (pH 7.4). Membranes were incubated with 0.8 nM [^3H]-N-methylhistamine plus/minus test compounds for 60 min at 25° C. and were harvested by rapid filtration over GF/C glass fiber filters (pretreated with 0.3% polyethylenimine) followed by four washes with buffer. Filters were added to 5 mL of scintillation cocktail, and the signal was then counted on a liquid scintillation counter.

T1 sequence (Q9Y5N1 whole entry): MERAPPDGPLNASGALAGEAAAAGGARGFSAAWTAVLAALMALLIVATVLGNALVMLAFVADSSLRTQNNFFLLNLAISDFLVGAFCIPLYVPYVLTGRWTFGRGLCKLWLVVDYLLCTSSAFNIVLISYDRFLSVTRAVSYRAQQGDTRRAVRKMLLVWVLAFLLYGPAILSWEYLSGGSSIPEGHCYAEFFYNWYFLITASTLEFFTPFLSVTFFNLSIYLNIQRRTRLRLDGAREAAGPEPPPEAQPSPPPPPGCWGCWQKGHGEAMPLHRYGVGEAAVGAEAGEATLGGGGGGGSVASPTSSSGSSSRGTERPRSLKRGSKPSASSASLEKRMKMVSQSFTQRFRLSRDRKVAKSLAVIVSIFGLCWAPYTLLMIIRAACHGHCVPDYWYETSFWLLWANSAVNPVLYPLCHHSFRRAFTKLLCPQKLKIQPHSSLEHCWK

Going from C(#Cc1ccc(CN2CCCCC2)cn1)CCN1CCCCC1 [Example 8, 2-(4-Piperidin-1-yl-but-1-ynyl)-5-piperidin-1-ylmethyl-pyridine] to C(#Cc1cccc(CN2CCCCC2)n1)CCN1CCCCC1 [Example 20, 2-(4-Piperidin-1-yl-but-1-ynyl)-6-piperidin-1-ylmethyl-pyridine], the Ki rises from 5 nM to 8 nM (1.6-fold).

Compared with CC(C)N1CCN(C(=O)c2ccc(NCCN3CCCCC3)nc2)CC1 [Example 9, (4-Isopropyl-piperazin-1-yl)-[6-(2-piperidin-1-yl-ethylamino)-pyridin-3-yl]-methanone], CC(C)N1CCN(C(=O)c2ccnc(NCCN3CCCCC3)c2)CC1 [Example 16, (4-Isopropyl-piperazin-1-yl)-[2-(2-piperidin-1-yl-ethylamino)-pyridin-4-yl]-methanone] is 3-fold higher in Ki: 2 nM for the first, 6 nM for the second.

First: CC(C)N1CCN(C(=O)c2ccc(NCCN3CCOCC3)nc2)CC1 [Example 10, (4-Isopropyl-piperazin-1-yl)-[6-(2-morpholin-4-yl-ethylamino)-pyridin-3-yl]-methanone]
Second: CC(C)N1CCN(C(=O)c2cccnc2NCCN2CCCCC2)CC1 [Example 17, (4-Isopropyl-piperazin-1-yl)-[2-(2-piperidin-1-yl-ethylamino)-pyridin-3-yl]-methanone]
The Ki of the first is 10-fold lower: 14 nM for the first, 141 nM for the second.

First: CC(C)N1CCN(C(=O)c2ccc(NCCc3ccccn3)nc2)CC1 [Example 11, (4-Isopropyl-piperazin-1-yl)-[6-(2-pyridin-2-yl-ethylamino)-pyridin-3-yl]-methanone]
Second: CCN(CC)CCN(C)c1ccc(C(=O)N2CCN(C(C)C)CC2)cn1 [Example 12, {6-[(2-Diethylamino-ethyl)-methyl-amino]-pyridin-3-yl}-(4-isopropyl-piperazin-1-yl)-methanone]
The Ki of the first is 28-fold higher: 84 nM for the first, 3 nM for the second.

CC(C)N1CCN(C(=O)c2ccc(N3CCN(C(C)C)CC3)nc2)CC1 [Example 13, (4-Isopropyl-piperazin-1-yl)-[6-(4-isopropyl-piperazin-1-yl)-pyridin-3-yl]-methanone] and CC(C)N1CCN(C(=O)c2ccc(N3CCN(C)CC3)nc2)CC1 [Example 15, (4-Isopropyl-piperazin-1-yl)-[6-(4-methyl-piperazin-1-yl)-pyridin-3-yl]-methanone] are within 1.5-fold of each other in Ki: 4 nM for the first, 3 nM for the second.

First: CCOC(=O)N1CCN(c2ccc(C(=O)N3CCN(C(C)C)CC3)cn2)CC1 [Example 14, 4-[5-(4-Isopropyl-piperazine-1-carbonyl)-pyridin-2-yl]-piperazine-1-carboxylic acid ethyl ester]
Second: C(#Cc1cncc(CN2CCCCC2)c1)CCN1CCCCC1 [Example 18, 3-(4-Piperidin-1-yl-but-1-ynyl)-5-piperidin-1-ylmethyl-pyridine]
The Ki of the first is 40-fold higher: 79 nM for the first, 2 nM for the second. The second binds more tightly here.

Compared with C(#Cc1cncc(CN2CCOCC2)c1)CCN1CCCCC1 [Example 19, 4-[5-(4-Piperidin-1-yl-but-1-ynyl)-pyridin-3-ylmethyl]-morpholine], C(#Cc1cccc(CN2CCOCC2)n1)CCN1CCCCC1 [Example 21, 4-[6-(4-Piperidin-1-yl-but-1-ynyl)-pyridin-2-ylmethyl]-morpholine] is 2.5-fold higher in Ki: 15 nM for the first, 38 nM for the second. The first binds more tightly here.

Compound COCCNCc1cccc(C#CCCN2CCCCC2)n1 [Example 22, (2-Methoxy-ethyl)-[6-(4-piperidin-1-yl-but-1-ynyl)-pyridin-2-ylmethyl]-amine] has a Ki of 29 nM.
